Measurements reported in patent US20240270762A1, “PENICILLIN-BINDING PROTEIN INHIBITORS” (priority 2021, published 2024).
Values after ≈ are worked out from the molar mass of the structure shown.

Tests used:
[1] = biological target: A. baumannii PBP2 (Acinetobacter baumannii, UniProt D0C8Z9); assay: Bocillin-FL competition binding via gel filtration, A. baumannii PBP2
How it was run: (§1)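 Competitive equilibrium binding with Bocillin-FL reporter: PBP pre-incubated with inhibitor dilutions, Bocillin-FL added, 15 min incubation. Labelled enzyme isolated by size-exclusion spin plates, fluorescence measured; EC50 obtained by fitting bound fraction against inhibitor concentration with a Hill-coefficient model.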

[2] = test system: B. humptydooensis ATCC BAA-2767; assay: microbe, parasite or virus in culture; assay type: cell-based; conditions: Burkholderia humptydooensis, ATCCBAA2767, read-out: Minimum inhibitory concentration (MIC), B. humptydooensis ATCC BAA-2767
[3] = test system: P. aeruginosa CDC-0090; assay: microbe, parasite or virus in culture; assay type: cell-based; conditions: Pseudomonas aeruginosa, CDC0090, read-out: Minimum inhibitory concentration, P. aeruginosa CDC-0090
[4] = test system: A. baumannii ATCC 19606; assay: microbe, parasite or virus in culture; assay type: cell-based; conditions: Acinetobacter baumannii, ATCC19606, read-out: MIC, A. baumannii ATCC 19606
[5] = test system: P. aeruginosa CDC-0110; assay: microbe, parasite or virus in culture; assay type: cell-based; conditions: Pseudomonas aeruginosa, CDC0110, read-out: Minimum inhibitory concentration, P. aeruginosa CDC-0110
[6] = test system: A. baumannii CDC-0083; assay: microbe, parasite or virus in culture; assay type: cell-based; conditions: Acinetobacter baumannii, CDC0083, read-out: MIC, A. baumannii CDC-0083
[7] = test system: P. aeruginosa CDC-0054; assay: microbe, parasite or virus in culture; assay type: cell-based; conditions: Pseudomonas aeruginosa, CDC0054, read-out: Minimum inhibitory concentration, P. aeruginosa CDC-0054
[8] = test system: A. baumannii ATCC 17978; assay: microbe, parasite or virus in culture; assay type: cell-based; conditions: Acinetobacter baumannii, ATCC17978, read-out: MIC, A. baumannii ATCC 17978
[9] = test system: P. aeruginosa (ΔmexAB-oprM); assay: Broth microdilution MIC in iron-depleted CAMHB (IDM); assay type: cell-based; conditions: Pseudomonas aeruginosa; iron-depleted CAMHB (IDM); […]; read-out: Minimum inhibitory concentration, P. aeruginosa ΔmexAB-oprM
[10] = test system: A. baumannii CDC-0045; assay: microbe, parasite or virus in culture; assay type: cell-based; conditions: Acinetobacter baumannii, CDC0045, read-out: MIC, A. baumannii CDC-0045
[11] = test system: P. aeruginosa CDC-0095; assay: microbe, parasite or virus in culture; assay type: cell-based; conditions: Pseudomonas aeruginosa, CDC0095, read-out: Minimum inhibitory concentration, P. aeruginosa CDC-0095
[12] = biological target: T1, A. baumannii PBP1a (Acinetobacter baumannii, UniProt A0ABX6CK30); assay: Bocillin-FL competition binding via gel filtration, A. baumannii PBP1a; conditions: competition binding assay using Bocillin-FL via gel filtration; read-out: A. baumannii PBP1a Potency
T1 sequence (A0ABX6CK30 1-851): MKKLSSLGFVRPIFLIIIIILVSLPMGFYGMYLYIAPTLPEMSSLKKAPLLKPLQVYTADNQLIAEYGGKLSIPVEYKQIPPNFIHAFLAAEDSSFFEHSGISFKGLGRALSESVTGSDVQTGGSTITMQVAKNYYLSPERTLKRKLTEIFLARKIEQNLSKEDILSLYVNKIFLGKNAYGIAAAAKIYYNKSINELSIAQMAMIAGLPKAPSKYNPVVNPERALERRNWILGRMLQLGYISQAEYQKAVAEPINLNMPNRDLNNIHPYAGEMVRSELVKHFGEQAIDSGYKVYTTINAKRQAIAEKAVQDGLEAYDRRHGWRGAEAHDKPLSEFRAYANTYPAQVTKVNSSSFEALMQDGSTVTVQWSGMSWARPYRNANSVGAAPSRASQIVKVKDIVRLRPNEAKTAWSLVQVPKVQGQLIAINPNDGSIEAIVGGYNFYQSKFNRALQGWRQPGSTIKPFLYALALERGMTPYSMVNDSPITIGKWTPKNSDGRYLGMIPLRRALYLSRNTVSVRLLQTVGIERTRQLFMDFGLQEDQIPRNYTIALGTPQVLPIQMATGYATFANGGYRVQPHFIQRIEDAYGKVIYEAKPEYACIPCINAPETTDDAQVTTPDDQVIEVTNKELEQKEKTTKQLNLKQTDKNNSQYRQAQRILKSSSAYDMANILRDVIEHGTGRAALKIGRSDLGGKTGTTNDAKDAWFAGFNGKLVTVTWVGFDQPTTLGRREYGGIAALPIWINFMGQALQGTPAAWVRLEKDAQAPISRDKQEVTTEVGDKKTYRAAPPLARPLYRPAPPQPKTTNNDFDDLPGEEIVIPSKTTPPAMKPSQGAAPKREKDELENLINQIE
How it was run: as §1

[13] = test system: B. thailandensis ATCC 700388; assay: microbe, parasite or virus in culture; assay type: cell-based; conditions: Burkholderia thailandensis, ATCC700388, read-out: Minimum inhibitory concentration (MIC), B. thailandensis ATCC 700388
[14] = test system: A. baumannii 1258916; assay: microbe, parasite or virus in culture; assay type: cell-based, Acinetobacter baumannii; conditions: Acinetobacter baumannii, 1258916, read-out: MIC, A. baumannii 1258916
[15] = test system: A. baumannii CDC-0033; assay: microbe, parasite or virus in culture; assay type: cell-based; conditions: Acinetobacter baumannii, CDC0033, read-out: MIC, A. baumannii CDC-0033
[16] = test system: P. aeruginosa ATCC 35151; assay: microbe, parasite or virus in culture; assay type: cell-based; conditions: Pseudomonas aeruginosa, ATCC35151, read-out: Minimum inhibitory concentration, P. aeruginosa ATCC 35151

Sequence of A. baumannii PBP2 (D0C8Z9 whole entry): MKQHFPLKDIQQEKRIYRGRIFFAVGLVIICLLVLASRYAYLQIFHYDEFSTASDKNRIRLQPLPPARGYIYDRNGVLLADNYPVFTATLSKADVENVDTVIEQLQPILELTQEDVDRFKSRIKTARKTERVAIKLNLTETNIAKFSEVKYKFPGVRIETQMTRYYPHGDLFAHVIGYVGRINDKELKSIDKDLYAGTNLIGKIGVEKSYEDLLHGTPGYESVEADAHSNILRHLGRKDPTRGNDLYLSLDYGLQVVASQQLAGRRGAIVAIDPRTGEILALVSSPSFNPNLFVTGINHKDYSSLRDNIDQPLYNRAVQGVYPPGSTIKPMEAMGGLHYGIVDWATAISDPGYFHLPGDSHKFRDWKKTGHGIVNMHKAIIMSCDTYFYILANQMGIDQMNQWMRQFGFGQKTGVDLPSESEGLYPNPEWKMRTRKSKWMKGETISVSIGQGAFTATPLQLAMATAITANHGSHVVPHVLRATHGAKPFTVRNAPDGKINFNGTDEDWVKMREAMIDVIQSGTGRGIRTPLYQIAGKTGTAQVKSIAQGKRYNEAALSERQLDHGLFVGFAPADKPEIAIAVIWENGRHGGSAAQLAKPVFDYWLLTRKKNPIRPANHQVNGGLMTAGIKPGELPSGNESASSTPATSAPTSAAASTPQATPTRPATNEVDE

Row | SMILES | EC50 [1] [µM] | MIC [2] [µg/mL] | MIC [3] [µg/mL] | MIC [4] [µg/mL] | MIC [5] [µg/mL] | MIC [6] [µg/mL] | MIC [7] [µg/mL] | MIC [8] [µg/mL] | MIC [9] [µg/mL] | MIC [10] [µg/mL] | MIC [11] [µg/mL] | EC50 [12] [µM] | MIC [13] [µg/mL] | MIC [14] [µg/mL] | MIC [15] [µg/mL] | MIC [16] [µg/mL]
1 | O=C(NCCCN1CCN(C(=O)NC(C(=O)N[C@H]2Cc3ccc(F)c(C(=O)O)c3OB2O)c2cc(F)c(O)c(O)c2Cl)C(=O)C1=O)c1cc(O)ccc1F (stereo partly drawn) [Example 407, (3R)-3-(2-(2-chloro-5-fluoro-3,4-dihydroxyphenyl)-2-(4-(3-(2-fluoro-5-hydroxybenzamido)propyl)-2,3-dioxopiperazine-1-carboxamido)acetamido)-7-fluoro-2-hydroxy-3,4-dihydro-2H-benzo[e][1,2]oxaborinine-8-carboxylic acid] | 10 to 50 | 8 to 16 (≈ 10.3 to 20.6 µM) | < 1 | < 1 | < 1 | < 1 | < 1 | < 1 | < 1 | < 1 | 2 to 4 (≈ 2.57 to 5.14 µM) | < 10 | 2 to 4 (≈ 2.57 to 5.14 µM) | 2 to 4 (≈ 2.57 to 5.14 µM) | 2 to 4 (≈ 2.57 to 5.14 µM) | < 1
2 | O=C(NCCCN1CCN(C(=O)NC(C(=O)N[C@H]2Cc3ccc(F)c(C(=O)O)c3OB2O)c2cc(F)c(O)c(O)c2Cl)C(=O)C1=O)c1ccc(O)c(Cl)c1F (stereo partly drawn) [Example 419, (3R)-3-(2-(4-(3-(3-chloro-2-fluoro-4-hydroxybenzamido)propyl)-2,3-dioxopiperazine-1-carboxamido)-2-(2-chloro-5-fluoro-3,4-dihydroxyphenyl)acetamido)-7-fluoro-2-hydroxy-3,4-dihydro-2H-benzo[e][1,2]oxaborinine-8-carboxylic acid] | < 10 | 2 to 4 (≈ 2.46 to 4.92 µM) | 2 to 4 (≈ 2.46 to 4.92 µM) | < 1 | < 1 | > 128 | 2 to 4 (≈ 2.46 to 4.92 µM) | < 1 | < 1 | 2 to 4 (≈ 2.46 to 4.92 µM) | 2 to 4 (≈ 2.46 to 4.92 µM) | < 10 | 2 to 4 (≈ 2.46 to 4.92 µM) | 2 to 4 (≈ 2.46 to 4.92 µM) | 8 to 16 (≈ 9.85 to 19.7 µM) | < 1
3 | O=C(NCCCN1CCN(C(=O)N[C@@H](C(=O)N[C@H]2Cc3ccc(F)c(C(=O)O)c3OB2O)c2cc(F)c(O)c(O)c2Cl)C(=O)C1=O)c1cc(F)c(O)c(F)c1 [Example 422, (R)-3-((R)-2-(2-chloro-5-fluoro-3,4-dihydroxyphenyl)-2-(4-(3-(3,5-difluoro-4-hydroxybenzamido)propyl)-2,3-dioxopiperazine-1-carboxamido)acetamido)-7-fluoro-2-hydroxy-3,4-dihydro-2H-benzo[e][1,2]oxaborinine-8-carboxylic acid] | < 10 | < 1 | 2 to 4 (≈ 2.51 to 5.03 µM) | < 1 | < 1 | > 128 | < 1 | < 1 | < 1 | < 1 | < 1 | < 10 | < 1 | < 1 | 2 to 4 (≈ 2.51 to 5.03 µM) | < 1
4 | O=C(NCCCN1CCN(C(=O)NC(C(=O)N[C@H]2Cc3ccc(F)c(C(=O)O)c3OB2O)c2cc(F)c(O)c(O)c2Cl)C(=O)C1=O)c1cc(O)ccc1Cl (stereo partly drawn) [Example 408, (3R)-3-(2-(2-chloro-5-fluoro-3,4-dihydroxyphenyl)-2-(4-(3-(2-chloro-5-hydroxybenzamido)propyl)-2,3-dioxopiperazine-1-carboxamido)acetamido)-7-fluoro-2-hydroxy-3,4-dihydro-2H-benzo[e][1,2]oxaborinine-8-carboxylic acid] | < 10 | 8 to 16 (≈ 10.1 to 20.1 µM) | < 1 | < 1 | < 1 | < 1 | < 1 | < 1 | < 1 | < 1 | < 1 | < 10 | 2 to 4 (≈ 2.52 to 5.04 µM) | 2 to 4 (≈ 2.52 to 5.04 µM) | 2 to 4 (≈ 2.52 to 5.04 µM) | < 1
5 | O=C(NCCCN1CCN(C(=O)NC(C(=O)N[C@H]2Cc3ccc(F)c(C(=O)O)c3OB2O)c2cc(F)c(O)c(O)c2Cl)C(=O)C1=O)c1cc(O)cc(O)c1 (stereo partly drawn) [Example 423, (3R)-3-(2-(2-chloro-5-fluoro-3,4-dihydroxyphenyl)-2-(4-(3-(3,5-dihydroxybenzamido)propyl)-2,3-dioxopiperazine-1-carboxamido)acetamido)-7-fluoro-2-hydroxy-3,4-dihydro-2H-benzo[e][1,2]oxaborinine-8-carboxylic acid] | < 10 | < 1 | < 1 | < 1 | < 1 | > 128 | < 1 | < 1 | < 1 | < 1 | < 1 | < 10 | < 1 | < 1 | 2 to 4 (≈ 2.58 to 5.16 µM) | < 1
6 | O=C(NCCCN1CCN(C(=O)N[C@@H](C(=O)N[C@H]2Cc3ccc(F)c(C(=O)O)c3OB2O)c2cc(F)c(O)c(O)c2Cl)C(=O)C1=O)c1ccc(O)cc1Cl (single isomer, unassigned) [Example 471] | < 10 | < 1 | < 1 | < 1 | < 1 | > 128 | < 1 | < 1 | < 1 | < 1 | < 1 | < 10 | < 1 | < 1 | 2 to 4 (≈ 2.52 to 5.04 µM) | < 1
7 | O=C(NCCCN1CCN(C(=O)N[C@@H](C(=O)N[C@H]2Cc3ccc(F)c(C(=O)O)c3OB2O)c2cc(F)c(O)c(O)c2Cl)C(=O)C1=O)c1ccncc1O [Example 296, (R)-3-((R)-2-(2-chloro-5-fluoro-3,4-dihydroxyphenyl)-2-(4-(3-(3-hydroxyisonicotinamido)propyl)-2,3-dioxopiperazine-1-carboxamido)acetamido)-7-fluoro-2-hydroxy-3,4-dihydro-2H-benzo[e][1,2]oxaborinine-8-carboxylic acid] | < 10 | 2 to 4 (≈ 2.63 to 5.26 µM) | < 1 | < 1 | < 1 | < 1 | < 1 | < 1 | < 1 | < 1 | < 1 | < 10 | 2 to 4 (≈ 2.63 to 5.26 µM) | < 1 | 2 to 4 (≈ 2.63 to 5.26 µM) | < 1
